Laboratory results published in patent publication US11883410B2, “Preventative and therapeutic agents for sarcopenia” (NATIONAL UNIVERSITY CORPORATION TOKYO UNIVERSITY OF …, priority 2018, dated 2024).
Read-outs that look alike come from different tables or passages of the source.

How the values were obtained:
Assay type in all cases: in vivo
[1] = tested on: tail-suspended mice (disuse muscle atrophy of lower limbs); test: Inhibition of muscular atrophy in tail-suspended mice, Part 3 (feeding started one week after tail-suspension); conditions: feed containing 0.3 mass % for 2 weeks starting one week after tail-suspension; vs control tail-suspension group
Description: (§1) Eight-week-old C57/BL6J male mice (Japan SLC, Inc., Shizuoka, Japan) were subjected to the tail-suspension to obtain mice model with disuse muscle atrophy of their lower limbs.
One week after tail-suspension, feed that contained 0.3 mass % compound (1) was fed for 2 weeks (compound (1) administration group). […] The number of tests was n=8 in each group.
Micro-CT imaging of the mouse hind limbs was performed before tail suspension, 1 week after suspension, 2 weeks after suspension, and 3 weeks after suspension. The muscle volume at the periphery of the tibia (triceps surae muscle) was measured using 3D volumetric analysis software. Micro-CT imaging was performed using a microfocus X-ray CT system (micro-CT: SMX-90T, manufactured by Shimadzu Corporation).
The midpoint of the fibula in the lower limb of each mouse was determined using 3D images created from the micro-CT images, and the volume of total muscle mass at the measurement area starting from the midpoint was measured.
Furthermore, the gastrocnemius muscle was collected from the mouse hind limb three weeks after the tail-suspension, and the wet mass (muscle mass) was measured.
(§2) A Student's t-test was used for the significant difference test.

[2] = tested on: tail-suspended mice (disuse muscle atrophy of lower limbs); test: Evaluation of inhibition of muscular atrophy in tail-suspended mice, Part 1; conditions: feed containing 0.01, 0.1 or 0.3 mass % for 2 weeks during tail-suspension; vs control tail-suspension group
Description: Eight-week-old C57/BL6J male mice (Japan SLC, Inc., Shizuoka, Japan) were subjected to tail-suspension to obtain mice model with disuse muscle atrophy of their lower limbs.
The tail-suspension was performed according to the description in Skelet Muscle. 2015; 5:34. […] Tail-suspension is known to cause skeletal muscle mass loss and muscle strength loss in the hind limbs, whereby an experimental model with disuse muscle atrophy, which is one type of sarcopenia, can be produced.
During the period of tail-suspension, feed containing 0.01, 0.1, or 0.3 mass % compound (1) was fed for 2 weeks (compound (1) administration groups). […] The number of tests was n=8 in each group.
(§3) Two weeks after the initiation of the experiment (the initiation of the tail-suspension and the initiation of feeding of the feed that contained the compound), micro-CT (micro-computed tomography) imaging of the mouse hind limbs was performed. The muscle volume at the periphery of the tibia (triceps surae muscle) was measured using 3D volumetric analysis software. Micro-CT imaging was performed using a microfocus X-ray CT system (micro-CT: SMX-90T manufactured by Shimadzu Corporation).
The midpoint of the fibula in the lower limb of each mouse was determined using 3D images created from the micro-CT images, and the volume of total muscle mass at the measurement area starting from the midpoint was measured. […]

[3] = tested on: tail-suspended mice (disuse muscle atrophy of lower limbs); test: Evaluation of inhibition of muscular atrophy in tail-suspended mice, Part 2; conditions: feed containing 0.01 mass % for 2 weeks during tail-suspension; vs control tail-suspension group
Description: as §1
While the tail-suspension was performed, feed containing 0.01 mass % compound (1), compound (2), compound (3), compound (4), or compound (5) was fed for 2 weeks (compound (1) administration group, compound (2) administration group, compound (3) administration group, compound (4) administration group, and compound (5) administration group). […] The number of tests was n=8 in each group.
as §3, with “feeding with” for “feeding of”, “the compounds),” for “the compound),”, “micro-CT” for “micro-CT (micro-computed tomography)”, “(micro-CT: SMX-90T,” for “(micro-CT: SMX-90T”
The midpoint of the fibula in the lower limb of each mouse was determined using 3D images created from the micro-CT images, and the volume of total muscle mass at the measurement area starting from the midpoint was measured. […] The rate of increase was calculated according to the following: (compound administration group−control tail-suspension group)/(normal breeding group−control tail-suspension group)×100.
Furthermore, the gastrocnemius muscle was collected from the mouse hind limb after the tail-suspension, and the wet mass (muscle mass) was measured. […] The rate of increase was calculated according to the following: (compound administration group−control tail-suspension group)/(normal breeding group−control tail-suspension group)×100.
as §2

[4] = Evaluation of blood kinetics of compound in mice (mixed feed); conditions: for Cmax / AUC(0-t): male, mouse, po, C57BL/6 mice, plasma, LC/MS; for AUC(0-t): read-out: AUC0-24 h
Description: Mixed feed that contained 0.01, 0.1, or 0.3 mass % compound (1) were fed to 7-week-old C57BL/6 mice (male, Charles River Japan Ltd., weight: 20.7-23.7 g) for 13 days.
Blood was collected from the face by using an animal lancet at 10 a.m., 1, 5, and 9 p.m. on day 12 and 10 a.m. on day 13.
About 75 μL of blood was collected into a heparin-coated hematocrit tube. The concentration of the compound in the plasma after centrifugation was measured using liquid chromatography-mass spectrometry (LC/MS).
Since a mouse with a body weight of about 20 g consumes about 4 g of the feed per day (spilling of food is not assumed), the daily intake of the compound is estimated to be 0.4 mg (0.01 mass % mixed feed), 4 mg (0.1 mass % mixed feed), or 12 mg (0.3 mass % mixed feed). The body weight conversion values were 20 mg/kg (0.01 mass % mixed feed), 200 mg/kg (0.1 mass % mixed feed), and 600 mg/kg (0.3 mass % mixed feed).

[5] = 20 mg/kg, 0.01% mixed feed for 13 days
[6] = 200 mg/kg, 0.1% mixed feed for 13 days
[7] = 600 mg/kg, 0.3% mixed feed for 13 days

Cmax [4, 5] [nM] | AUC(0-t) [4, 5] [µM·h] | Cmax [4, 6] [nM] | AUC(0-t) [4, 6] [µM·h] | Cmax [4, 7] [nM] | AUC(0-t) [4, 7] [µM·h] | SMILES | muscle volume change at the periphery of the tibia (triceps surae muscle), micro-CT (FIG. 11) [1] | wet mass (muscle mass) of gastrocnemius muscle three weeks after tail-suspension (FIG. 12) [1] | muscle volume at the periphery of the tibia (triceps surae muscle), micro-CT (FIG. 2) [2] | wet mass (muscle mass) of gastrocnemius, soleus, tibialis anterior and extensor digitorum longus muscles (FIG. 3) [2] | muscle volume at the periphery of the tibia (triceps surae muscle), micro-CT (FIG. 6, FIG. 7) [3] | wet mass (muscle mass) of gastrocnemius muscle (FIG. 8, FIG. 9) [3] | compound concentration in blood ([4]; mixed feed in the range of 0.01 mass % to 0.3 mass %)
230 | 4.29 | 2210 | 38.3 | 6410 | 104 | Cn1cccc1C(=O)N1CCN(C(=O)Nc2ccc(N3CCC(C(=O)N4CCOCC4)CC3)cc2)CC1 [compound (1), 4-{(1-methyl-1H-pyrrol-2-yl)carbonyl}-N-[4-{4-(4-morpholinylcarbonyl)-1-piperidinyl}phenyl]-1-piperazine carboxamide] | significantly higher muscle amount at week 2 and week 3 | significant therapeutic effect on the muscle amount | significant suppression of muscle mass loss | a tendency to suppress a decrease in the muscle amount in all of the hind limb muscles | significant suppression of muscle mass loss | significant suppression of the decrease in the muscle amount | dose-dependent increase in the compound concentration in blood
– | – | – | – | – | – | c1ccc(C(OC2CCN(CCCc3nnn[nH]3)CC2)c2ccccc2)cc1 [compound (2), 4-(diphenylmethoxy)-1-[3-(2H-tetrazol-5-yl)propyl]piperidine] | – | – | – | – | did not show significant suppression of muscle mass loss although a tendency toward suppression was observed | did not show a significant difference although a tendency toward suppression of the decrease in the muscle amount was observed | –
– | – | – | – | – | – | O=C(Nc1ccc(N2CCC(CCn3cncn3)C2)cc1)N1CCC(=Cc2ccccn2)CC1 (stereo not shown) [compound (4), N-(4-(3-(2-(1H-1,2,4-triazol-1-yl)ethyl)pyrrolidin-1-yl)phenyl)-4-(pyridin-2-ylmethylene)piperidine-1-carboxamide] | – | – | – | – | significant suppression of muscle mass loss | significant suppression of the decrease in the muscle amount | –
– | – | – | – | – | – | Cn1cccc1C(=O)N1CCN(C(=O)NC2CCN(c3ccc(CCn4ccnn4)cc3)CC2)CC1 [compound (5), 4-((1-methylpyrrol-2-yl)-carbonyl)-N-(1-(4-(2-(1H-1,2,3-triazol-1-yl)-ethyl)-phenyl)-piperidin-4-yl)-1-piperazine carboxamide] | – | – | – | – | significant suppression of muscle mass loss | significant suppression of the decrease in the muscle amount | –
